Measured values from the supplement of paper PMC11061612.

Assays:
[1] = system: DND-41 (T-Lymphoblastic Leukemia); experiment: Bliss excess, mean over the matrix (fraction); higher = more synergy
Outline: (§1)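 Cell lines in DMEM/F12 or RPMI with 10% FBS were plated in 1536-well plates, held 24 hours at 37°C, 5% CO2, then given two-drug dose matrices for 72 hours (DMSO typically 0.2%). Viability was read by CellTiter-Glo 2.0 luminescence and scaled as inhibition from 0 (vehicle wells) to 1 (blank wells). Combination Emax is the second-highest inhibition in the matrix; Bliss excess is observed combination effect minus expected EA + EB − EA·EB, EA and EB being single-agent effects.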

[2] = system: BL-41 (Burkitt's Lymphoma); experiment: as above
Outline: as §1

[3] = system: CAMA-1 (Breast Carcinoma); experiment: as above
Outline: as §1

[4] = system: L-540 (Hodgkin's Lymphoma); experiment: as above
Outline: as §1

[5] = system: K-562 (Chronic Myelogenous Leukemia); experiment: as above
Outline: as §1

[6] = system: SR (Other Blood Carcinomas); experiment: as above
Outline: as §1

[7] = system: SW837 (Colorectal Carcinoma); experiment: as above
Outline: as §1

[8] = system: MKN28 (Gastric Carcinoma); experiment: as above
Outline: as §1

[9] = system: GR-ST (B-Lymphoblastic Leukemia); experiment: as above
Outline: as §1

[10] = system: NCI-H1792 (Lung Adenocarcinoma); experiment: as above
Outline: as §1

ES8 (Ewing's Sarcoma) [11] = experiment: as above
Outline: as §1

[12] = system: SW1417 (Colorectal Carcinoma); experiment: as above
Outline: as §1

[13] = system: BFTC-905 (Bladder Carcinoma); experiment: as above
Outline: as §1

WM-115 (Melanoma) [14] = experiment: as above
Outline: as §1

ES1 (Ewing's Sarcoma) [15] = experiment: as above
Outline: as §1

NCI-H2818 (Mesothelioma) [16] = experiment: as above
Outline: as §1

WIL2-NS (Non-Cancerous) [17] = experiment: as above
Outline: as §1

[18] = system: DND-41 (T-Lymphoblastic Leukemia); experiment: combination Emax (second highest fraction inhibited in the dose matrix, 72 h); higher = more inhibition; extreme values may be limits of the assay
Outline: as §1

[19] = system: BL-41 (Burkitt's Lymphoma); experiment: as above
Outline: as §1

[20] = system: CAMA-1 (Breast Carcinoma); experiment: as above
Outline: as §1

[21] = system: L-540 (Hodgkin's Lymphoma); experiment: as above
Outline: as §1

[22] = system: K-562 (Chronic Myelogenous Leukemia); experiment: as above
Outline: as §1

[23] = system: SR (Other Blood Carcinomas); experiment: as above
Outline: as §1

[24] = system: SW837 (Colorectal Carcinoma); experiment: as above
Outline: as §1

[25] = system: MKN28 (Gastric Carcinoma); experiment: as above
Outline: as §1

[26] = system: GR-ST (B-Lymphoblastic Leukemia); experiment: as above
Outline: as §1

[27] = system: NCI-H1792 (Lung Adenocarcinoma); experiment: as above
Outline: as §1

ES8 (Ewing's Sarcoma) [28] = experiment: as above
Outline: as §1

[29] = system: SW1417 (Colorectal Carcinoma); experiment: as above
Outline: as §1

[30] = system: BFTC-905 (Bladder Carcinoma); experiment: as above
Outline: as §1

WM-115 (Melanoma) [31] = experiment: as above
Outline: as §1

ES1 (Ewing's Sarcoma) [32] = experiment: as above
Outline: as §1

NCI-H2818 (Mesothelioma) [33] = experiment: as above
Outline: as §1

WIL2-NS (Non-Cancerous) [34] = experiment: as above
Outline: as §1
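Throughout, for Bliss excess, mean over the matrix: after 72 h of two-drug dosing.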

Structure (SMILES) | Bliss excess [1] | Bliss excess [2] | Bliss excess [3] | Bliss excess [4] | Bliss excess [5] | Bliss excess [6] | Bliss excess [7] | Bliss excess [8] | Bliss excess [9] | Bliss excess [10] | Bliss excess (ES8 (Ewing's Sarcoma) [11]) | Bliss excess [12] | Bliss excess [13] | Bliss excess (WM-115 (Melanoma) [14]) | Bliss excess (ES1 (Ewing's Sarcoma) [15]) | Bliss excess (NCI-H2818 (Mesothelioma) [16]) | Bliss excess (WIL2-NS (Non-Cancerous) [17]) | combination Emax [18] | combination Emax [19] | combination Emax [20] | combination Emax [21] | combination Emax [22] | combination Emax [23] | combination Emax [24] | combination Emax [25] | combination Emax [26] | combination Emax [27] | combination Emax (ES8 (Ewing's Sarcoma) [28]) | combination Emax [29] | combination Emax [30] | combination Emax (WM-115 (Melanoma) [31]) | combination Emax (ES1 (Ewing's Sarcoma) [32]) | combination Emax (NCI-H2818 (Mesothelioma) [33]) | combination Emax (WIL2-NS (Non-Cancerous) [34])
O=C(c1cc(Cc2n[nH]c(=O)c3ccccc23)ccc1F)N1CCN(C(=O)C2CC2)CC1 [Olaparib] + COc1nnc2ccc(N3CCC(c4ccc(OCCN5CCN(C)C(=O)[C@H]5C)cc4)CC3)nn12 [AZD5153] (first compound max 10 µM, 7x7, partner max 1 µM) | 0.0275 | -0.0634 | -0.0417 | -0.0841 | -0.0063 | 0.0315 | -0.0656 | -0.056 | -0.0519 | -0.0554 | 0.0168 | -0.0096 | -0.0614 | -0.135 | -0.0392 | -0.0205 | -0.0128 | 0.69 | 0.648 | 0.484 | 0.619 | 0.412 | 0.626 | 0.484 | 0.362 | 0.776 | 0.527 | 0.966 | 0.448 | 0.6 | 0.295 | 0.882 | 0.325 | 0.818
C[C@@H](Oc1cc(-c2cnn(C3CCNCC3)c2)cnc1N)c1c(Cl)ccc(F)c1Cl [Crizotinib] + CC1=C(C(=CC=C1)Cl)NC(=O)C2=CN=C(S2)NC3=CC(=NC(=N3)C)N4CCN(CC4)CCO [Dasatinib] (first compound max 10 µM, 7x7, partner max 2 µM) | -0.0124 | 0.0338 | -0.0273 | -0.0447 | 0.0162 | -0.0251 | 0.0025 | -0.0096 | 0.0129 | 0.0376 | 0.0154 | 0.0352 | 0.0479 | -0.0409 | -0.0149 | 0.0145 | 0.105 | 0.951 | 0.978 | 0.184 | 0.629 | 0.95 | 1 | 0.628 | 0.673 | 0.955 | 0.928 | 0.946 | 0.535 | 0.97 | 0.49 | 0.843 | 0.589 | 0.635
N#Cc1cnc(Nc2cc(NC[C@H]3CNCCO3)c(C(F)(F)F)cn2)cn1 [SRA737] + C=CCn1c(=O)c2cnc(Nc3ccc(N4CCN(C)CC4)cc3)nc2n1-c1cccc(C(C)(C)O)n1 [AZD1775] (first compound max 10 µM, partner max 1 µM) | 0.104 | 0.0924 | 0.0672 | 0.0404 | 0.0463 | 0.029 | 0.0157 | 0.0204 | 0.0215 | 0.0434 | 0.144 | 0.0127 | 0.0526 | -0.0524 | 0.118 | -0.0129 | 0.102 | 0.949 | 1 | 0.442 | 0.921 | 0.967 | 1 | 0.725 | 0.504 | 0.864 | 0.864 | 0.884 | 0.537 | 0.777 | 0.356 | 0.993 | 0.299 | 0.968
CN(CCO)CC[C@H](CSc1ccccc1)Nc1ccc(S(=O)(=O)NC(=O)c2ccc(N3CCC([C@@H](O)c4ccccc4-c4ccc(Cl)cc4)CC3)cc2)cc1S(=O)(=O)C(F)(F)F [AZD4320] + Nc1ccn([C@@H]2O[C@H](CO)[C@@H](O)C2(F)F)c(=O)n1 [Gemcitabine] (first compound max 1 µM, 7x7, partner max 0.3 µM) | 0.0375 | -0.0094 | 0.063 | -0.0365 | 0.0054 | 0.053 | -0.0331 | -0.0338 | -0.0009 | 0.0469 | 0.0312 | -0.0377 | 0.0207 | 0.0125 | -0.0239 | 0.0008 | 0.0107 | 1 | 1 | 0.651 | 0.951 | 0.353 | 1 | 0.475 | 0.283 | 0.765 | 0.823 | 1 | 0.49 | 0.9 | 0.688 | 1 | 0.717 | 0.987
N#Cc1cnc(Nc2cc(NC[C@H]3CNCCO3)c(C(F)(F)F)cn2)cn1 [SRA737] + Nc1ccn([C@@H]2O[C@H](CO)[C@@H](O)C2(F)F)c(=O)n1 [Gemcitabine] (first compound max 10 µM, 7x7, partner max 0.3 µM) | -0.0197 | -0.0522 | 0.0294 | 0.0222 | 0.0559 | 0.0325 | 0.121 | 0.032 | 0.0024 | 0.0436 | 0.0504 | 0.0613 | 0.0034 | -0.0214 | 0.0419 | 0.0002 | -0.0384 | 0.908 | 1 | 0.455 | 0.962 | 0.933 | 1 | 0.75 | 0.575 | 0.871 | 0.922 | 1 | 0.685 | 0.868 | 0.501 | 1 | 0.473 | 0.983
Cc1cc2ncnn2cc1Nc1ncc2c(n1)n(C1CCOCC1)c(=O)n2C [AZD7648] + COc1cc([C@@H]2c3cc4c(cc3[C@@H](O[C@@H]3O[C@@H]5CO[C@@H](C)O[C@H]5[C@H](O)[C@H]3O)[C@H]3COC(=O)[C@H]23)OCO4)cc(OC)c1O [Etoposide] (first compound max 10 µM, 7x7, partner max 10 µM) | 0.115 | 0.0647 | -0.012 | 0.108 | 0.114 | 0.193 | 0.0591 | 0.0435 | 0.0727 | 0.0565 | 0.165 | 0.0288 | 0.152 | 0.0071 | 0.109 | 0.0361 | 0.0553 | 0.967 | 0.998 | 0.463 | 0.903 | 0.872 | 1 | 0.358 | 0.56 | 0.703 | 0.708 | 0.994 | 0.382 | 0.903 | 0.481 | 1 | 0.617 | 0.981
N#Cc1cnc(Nc2cc(NC[C@H]3CNCCO3)c(C(F)(F)F)cn2)cn1 [SRA737] + CCc1c2c(nc3ccc(O)cc13)-c1cc3c(c(=O)n1C2)COC(=O)[C@]3(O)CC [SN-38] (first compound max 10 µM, 7x7, partner max 0.3 µM) | -0.0573 | -0.0272 | 0.0081 | -0.0403 | 0.138 | -0.0069 | 0.0267 | 0.04 | -0.102 |  | 0.0054 | 0.019 | -0.028 | -0.0968 | -0.0145 | -0.0605 | -0.0262 | 0.974 | 1 | 0.393 | 0.938 | 0.977 | 1 | 0.805 | 0.552 | 0.836 | 0.889 | 1 | 0.803 | 0.912 | 0.421 | 1 | 0.337 | 0.982
CC1(C)CCC(CN2CCN(c3ccc(C(=O)NS(=O)(=O)c4ccc(NCC5CCOCC5)c([N+](=O)[O-])c4)c(Oc4cnc5[nH]ccc5c4)c3)CC2)=C(c2ccc(Cl)cc2)C1 [Venetoclax] + CS(=O)(=O)CCNCc1ccc(-c2ccc3ncnc(Nc4ccc(OCc5cccc(F)c5)c(Cl)c4)c3c2)o1 [Lapatinib] (first compound max 1 µM, 7x7, partner max 10 µM) | -0.0268 | 0.0434 | -0.0271 | -0.005 | -0.0039 | 0.0557 | -0.0498 | -0.0303 | -0.0246 | -0.0311 | -0.0229 | -0.0168 | -0.0591 | -0.0897 | -0.0215 | -0.0651 | 0.0039 | 0.81 | 0.855 | 0.162 | 0.532 | 0.451 | 0.36 | 0.185 | 0.397 | 0.934 | 0.345 | 0.506 | 0.136 | 0.254 | 0.237 | 0.381 | 0.174 | 0.348
